# ChEMBL document CHEMBL1201862, “PubChem BioAssay data set” (2004)
#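 How tested: cells in 96-well plates exposed to compound for 48 hours at five concentrations. GI50: concentration for 50% inhibition of growth.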 The source made the active and inactive calls. Cut-off read from the data, not from the text of the source: active = GI50 up to about 1.1 µM and inactive = higher.
# Legend:
# Experiment in all cases: inhibition of tumour cell growth, NCI panel, 48 h
# LOX IMVI = tested on: LOX IMVI
# MDA-MB-435 = tested on: MDA-MB-435
# OVCAR-8 = tested on: OVCAR-8
# A549 = tested on: A549
# ACHN = tested on: ACHN
# PC-3 = tested on: PC-3
# SK-MEL-5 = tested on: SK-MEL-5
# MCF7 = tested on: MCF7
# HCC 2998 = tested on: HCC 2998
# HCT-116 = tested on: HCT-116
# SNB-75 = tested on: SNB-75
# NCI-H226 = tested on: NCI-H226
# IGROV-1 = tested on: IGROV-1
# SK-MEL-2 = tested on: SK-MEL-2
# NCI-H522 = tested on: NCI-H522
# A498 = tested on: A498
# SN12C = tested on: SN12C
# 786-0 = tested on: 786-0
# HCT-15 = tested on: HCT-15
# NCI/ADR-RES = tested on: NCI/ADR-RES
# Malme-3M = tested on: Malme-3M
# BT-549 = tested on: BT-549
# KM12 = tested on: KM12
# NCI-H460 = tested on: NCI-H460
# CCRF-CEM = tested on: CCRF-CEM
# SF-268 = tested on: SF-268
# OVCAR-3 = tested on: OVCAR-3
# Hs-578T = tested on: Hs-578T
# SK-OV-3 = tested on: SK-OV-3
# HL-60 = tested on: HL-60
# CAKI-1 = tested on: CAKI-1
# TK-10 = tested on: TK-10
# DU-145 = tested on: DU-145
# HOP-92 = tested on: HOP-92
# OVCAR-4 = tested on: OVCAR-4
# U-251 = tested on: U-251
# T47D = tested on: T47D
# SF-539 = tested on: SF-539
# SNB-19 = tested on: SNB-19
# OVCAR-5 = tested on: OVCAR-5
# RXF 393 = tested on: RXF 393
# M14 = tested on: M14
# UACC-257 = tested on: UACC-257
# RPMI-8226 = tested on: RPMI-8226
# K562 = tested on: K562
# SW-620 = tested on: SW-620
# SF-295 = tested on: SF-295
# MDA-N = tested on: MDA-N
# UO-31 = tested on: UO-31
# NCI-H23 = tested on: NCI-H23
# MOLT-4 = tested on: MOLT-4
# MDA-MB-231 = tested on: MDA-MB-231
# COLO 205 = tested on: COLO 205
# HT-29 = tested on: HT-29
# UACC-62 = tested on: UACC-62
# SK-MEL-28 = tested on: SK-MEL-28
# EKVX = tested on: EKVX
# HOP-62 = tested on: HOP-62
smiles,measurement,setting,value
CN1C(=O)C(O)CC1c1ccc(C(F)(F)F)cc1 (centres undefined),GI50,LOX IMVI,> 100 µM (inactive)
same,GI50,MDA-MB-435,> 100 µM (inactive)
same,GI50,OVCAR-8,> 100 µM (inactive)
same,GI50,A549,> 100 µM (inactive)
same,GI50,ACHN,> 100 µM (inactive)
same,GI50,PC-3,> 100 µM (inactive)
same,GI50,SK-MEL-5,> 100 µM (inactive)
same,GI50,MCF7,> 100 µM (inactive)
same,GI50,HCC 2998,> 100 µM (inactive)
same,GI50,HCT-116,> 100 µM (inactive)
same,GI50,SNB-75,> 100 µM (inactive)
same,GI50,NCI-H226,> 100 µM (inactive)
same,GI50,IGROV-1,> 100 µM (inactive)
same,GI50,SK-MEL-2,> 100 µM (inactive)
same,GI50,NCI-H522,> 100 µM (inactive)
same,GI50,A498,> 100 µM (inactive)
same,GI50,SN12C,> 100 µM (inactive)
same,GI50,786-0,> 100 µM (inactive)
same,GI50,HCT-15,> 100 µM
same,GI50,NCI/ADR-RES,> 100 µM (inactive)
same,GI50,Malme-3M,> 100 µM (inactive)
same,GI50,BT-549,> 100 µM (inactive)
same,GI50,KM12,> 100 µM (inactive)
same,GI50,NCI-H460,> 100 µM (inactive)
same,GI50,CCRF-CEM,> 100 µM (inactive)
same,GI50,SF-268,> 100 µM (inactive)
same,GI50,OVCAR-3,> 100 µM (inactive)
same,GI50,Hs-578T,> 100 µM (inactive)
same,GI50,SK-OV-3,> 100 µM (inactive)
same,GI50,HL-60,> 100 µM (inactive)
same,GI50,CAKI-1,> 100 µM (inactive)
same,GI50,TK-10,> 100 µM (inactive)
same,GI50,DU-145,> 100 µM (inactive)
same,GI50,HOP-92,> 100 µM (inactive)
same,GI50,OVCAR-4,> 100 µM (inactive)
same,GI50,U-251,> 100 µM (inactive)
same,GI50,T47D,> 100 µM (inactive)
same,GI50,SF-539,> 100 µM (inactive)
same,GI50,SNB-19,> 100 µM (inactive)
same,GI50,OVCAR-5,> 100 µM (inactive)
same,GI50,RXF 393,> 100 µM (inactive)
same,GI50,M14,> 100 µM (inactive)
same,GI50,UACC-257,44.1 µM (inactive)
same,GI50,RPMI-8226,> 100 µM (inactive)
same,GI50,K562,> 100 µM (inactive)
same,GI50,SW-620,> 100 µM (inactive)
same,GI50,SF-295,> 100 µM (inactive)
same,GI50,MDA-N,> 100 µM (inactive)
same,GI50,UO-31,> 100 µM (inactive)
same,GI50,NCI-H23,> 100 µM (inactive)
same,GI50,MOLT-4,> 100 µM (inactive)
same,GI50,MDA-MB-231,> 100 µM (inactive)
same,GI50,COLO 205,> 100 µM (inactive)
same,GI50,HT-29,> 100 µM (inactive)
same,GI50,UACC-62,> 100 µM (inactive)
same,GI50,SK-MEL-28,> 100 µM (inactive)
same,GI50,EKVX,> 100 µM (inactive)
same,GI50,HOP-62,> 100 µM (inactive)
O=C(O)CN(CC(=O)O)C1CCCCC1N(CC(=O)O)CC(=O)NCCN=C=S (centres undefined),GI50,LOX IMVI,> 100 µM (inactive)
same,GI50,MDA-MB-435,> 100 µM (inactive)
same,GI50,OVCAR-8,> 100 µM (inactive)
same,GI50,A549,> 100 µM (inactive)
same,GI50,ACHN,> 100 µM (inactive)
same,GI50,PC-3,> 100 µM (inactive)
same,GI50,SK-MEL-5,> 100 µM (inactive)
same,GI50,MCF7,> 100 µM (inactive)
same,GI50,HCC 2998,> 100 µM (inactive)
same,GI50,HCT-116,> 100 µM (inactive)
same,GI50,NCI-H226,> 100 µM (inactive)
same,GI50,IGROV-1,> 100 µM (inactive)
same,GI50,SK-MEL-2,> 100 µM (inactive)
same,GI50,NCI-H522,> 100 µM (inactive)
same,GI50,A498,> 100 µM (inactive)
same,GI50,SN12C,> 100 µM (inactive)
same,GI50,HCT-15,> 100 µM
same,GI50,NCI/ADR-RES,> 100 µM (inactive)
same,GI50,Malme-3M,> 100 µM (inactive)
same,GI50,BT-549,> 100 µM (inactive)
same,GI50,KM12,> 100 µM (inactive)
same,GI50,NCI-H460,> 100 µM (inactive)
same,GI50,CCRF-CEM,> 100 µM (inactive)
same,GI50,SF-268,> 100 µM (inactive)
same,GI50,OVCAR-3,> 100 µM (inactive)
same,GI50,Hs-578T,> 100 µM (inactive)
same,GI50,SK-OV-3,> 100 µM (inactive)
same,GI50,HL-60,> 100 µM (inactive)
same,GI50,CAKI-1,> 100 µM (inactive)
same,GI50,TK-10,> 100 µM (inactive)
same,GI50,DU-145,> 100 µM (inactive)
same,GI50,HOP-92,> 100 µM (inactive)
same,GI50,U-251,> 100 µM (inactive)
same,GI50,T47D,> 100 µM (inactive)
same,GI50,SF-539,> 100 µM (inactive)
same,GI50,SNB-19,> 100 µM (inactive)
same,GI50,OVCAR-5,> 100 µM (inactive)
same,GI50,RXF 393,> 100 µM (inactive)
same,GI50,M14,> 100 µM (inactive)
same,GI50,UACC-257,> 100 µM (inactive)
same,GI50,RPMI-8226,> 100 µM (inactive)
same,GI50,K562,> 100 µM (inactive)
same,GI50,SW-620,> 100 µM (inactive)
same,GI50,SF-295,> 100 µM (inactive)
same,GI50,MDA-N,> 100 µM (inactive)
same,GI50,UO-31,> 100 µM (inactive)
same,GI50,NCI-H23,> 100 µM (inactive)
same,GI50,MOLT-4,> 100 µM (inactive)
same,GI50,MDA-MB-231,> 100 µM (inactive)
same,GI50,HT-29,> 100 µM (inactive)
same,GI50,UACC-62,> 100 µM (inactive)
same,GI50,SK-MEL-28,> 100 µM (inactive)
same,GI50,EKVX,> 100 µM (inactive)
same,GI50,HOP-62,> 100 µM (inactive)
Nc1nc2c(c(-c3cccc(Cl)c3)n1)COC/C2=C\c1cccc(Cl)c1,GI50,LOX IMVI,> 100 µM (inactive)
same,GI50,MDA-MB-435,> 100 µM (inactive)
same,GI50,OVCAR-8,> 100 µM (inactive)
same,GI50,ACHN,> 100 µM (inactive)
same,GI50,PC-3,> 100 µM (inactive)
same,GI50,SK-MEL-5,> 100 µM (inactive)
same,GI50,MCF7,> 100 µM (inactive)
same,GI50,HCC 2998,56.8 µM (inactive)
same,GI50,HCT-116,> 100 µM (inactive)
same,GI50,SNB-75,22.9 µM (inactive)
same,GI50,NCI-H226,> 100 µM (inactive)
same,GI50,IGROV-1,94.2 µM (inactive)
same,GI50,SK-MEL-2,> 100 µM (inactive)
same,GI50,NCI-H522,> 100 µM (inactive)
same,GI50,A498,> 100 µM (inactive)
same,GI50,SN12C,> 100 µM (inactive)
same,GI50,786-0,15.6 µM (inactive)
same,GI50,HCT-15,> 100 µM
same,GI50,NCI/ADR-RES,> 100 µM (inactive)
same,GI50,Malme-3M,37.9 µM (inactive)
same,GI50,BT-549,> 100 µM (inactive)
same,GI50,KM12,85.1 µM (inactive)
same,GI50,NCI-H460,> 100 µM (inactive)
same,GI50,CCRF-CEM,> 100 µM (inactive)
same,GI50,SF-268,> 100 µM (inactive)
same,GI50,OVCAR-3,> 100 µM (inactive)
same,GI50,Hs-578T,45.6 µM (inactive)
same,GI50,SK-OV-3,> 100 µM (inactive)
same,GI50,HL-60,> 100 µM (inactive)
same,GI50,CAKI-1,> 100 µM (inactive)
same,GI50,TK-10,41.8 µM (inactive)
same,GI50,DU-145,80.2 µM (inactive)
same,GI50,HOP-92,> 100 µM (inactive)
same,GI50,OVCAR-4,> 100 µM (inactive)
same,GI50,U-251,> 100 µM (inactive)
same,GI50,T47D,82.6 µM (inactive)
same,GI50,SF-539,> 100 µM (inactive)
same,GI50,SNB-19,> 100 µM (inactive)
same,GI50,OVCAR-5,> 100 µM (inactive)
same,GI50,RXF 393,> 100 µM (inactive)
same,GI50,M14,> 100 µM (inactive)
same,GI50,UACC-257,47.2 µM (inactive)
same,GI50,RPMI-8226,> 100 µM (inactive)
same,GI50,K562,> 100 µM (inactive)
same,GI50,SW-620,> 100 µM (inactive)
same,GI50,SF-295,> 100 µM (inactive)
same,GI50,MDA-N,> 100 µM (inactive)
same,GI50,UO-31,25 µM (inactive)
same,GI50,NCI-H23,> 100 µM (inactive)
same,GI50,MOLT-4,> 100 µM (inactive)
same,GI50,MDA-MB-231,52.7 µM (inactive)
same,GI50,COLO 205,> 100 µM (inactive)
same,GI50,HT-29,> 100 µM (inactive)
same,GI50,UACC-62,> 100 µM (inactive)
same,GI50,SK-MEL-28,> 100 µM (inactive)
same,GI50,EKVX,> 100 µM (inactive)
same,GI50,HOP-62,> 100 µM (inactive)
